According to patent US20050032882A1, “Botanical extract compositions and methods of use” (priority 2002, published 2005):
In brackets after ≈: the same amount, converted by molar mass.

Tests used:
[1] = tested on: MCF-7 breast cancer cells; assay: MTT cell viability assay, MCF-7 breast cancer cells; assay type: cell-based; settings: concentration giving 50% inhibition of cancer cell growth, 72 hours, linear interpolation
From the text: Cancer cell lines: LNCaP, DU-145, and MCF-7 cells were purchased from the American Type Culture Collection. […] Cells were maintained in RPMI 1640 culture media supplemented with 10% heat-inactivated FBS, 5 millimolar glutamine, 50 units/milliliter of penicillin G, and 50 […] of streptomycin. The cells were routinely seeded at 1×10^5 cells/milliliter in T-75 flasks, allowed to attach overnight, then treated with the herbal extract. At different times, cells were harvested by trypsinization. […] The assay reagents were purchased from Boehringer Mannheim (Roche Diagnosis Corp, Indianapolis, Ind.). […] The protocol for the cell viability assay was provided by the manufacturer and modified in our laboratory as described below. CSO-0001-P […] After 24 hours, 20 microliter aliquots of the compounds at various concentrations were added to the attached cells. […] The plates were incubated at 37° C. in a CO2 incubator for 72 hours. […] The plate was allowed to stand overnight in the CO2 incubator and read by an ELISA Reader (EL800, Bio-Tek Instruments, Inc.) at a wavelength of 570 nm. The percent cell viability was calculated according to the equation below: [formula] where V is the percent cell viability, Acontrol is the absorption of the control cells, and Atreated is the absorption of the treated cells. […]

[2] = tested on: LNCaP (androgen-dependent) prostate cancer cells; assay: MTT cell viability assay, LNCaP prostate cancer cells; assay type: cell-based; settings: concentration giving 50% inhibition of cancer cell growth, 72 hours, linear interpolation
From the text: (§1) Cancer cell lines: LNCaP, DU-145, and MCF-7 cells were purchased from the American Type Culture Collection. […] Cells were maintained in RPMI 1640 culture media supplemented with 10% heat-inactivated FBS, 5 millimolar glutamine, 50 units/milliliter of penicillin G, and 50 […] of streptomycin. The cells were routinely seeded at 1×10^5 cells/milliliter in T-75 flasks, allowed to attach overnight, then treated with the herbal extract. At different times, cells were harvested by trypsinization. […] The assay reagents were purchased from Boehringer Mannheim (Roche Diagnosis Corp, Indianapolis, Ind.). […] The protocol for the cell viability assay was provided by the manufacturer and modified in our laboratory as described below. […] After 24 hours, 20 microliter aliquots of the compounds at various concentrations were added to the attached cells. […] The plates were incubated at 37° C. in a CO2 incubator for 72 hours. At the end of day 3 (after 72 hours), the culture medium was carefully removed without disturbing the cells and replaced by 100 microliters of fresh cell medium.

[3] = tested on: DU-145 (androgen-independent) prostate cancer cells; assay: MTT cell viability assay, DU-145 prostate cancer cells; assay type: cell-based; settings: concentration giving 50% inhibition of cancer cell growth, 72 hours, linear interpolation
From the text: as §1

[4] = biological target: T1, COX-2 (Ovis aries, UniProt P79208); assay: ovine COX-2 Inhibitor Screening Assay (Cayman, prostaglandin immunoassay); assay type: biochemical; settings: ovine COX-2, arachidonic acid substrate; read-out: IC50 COX-2 inhibition
T1 construct: purchased Cayman Chemical 760101
T1 sequence (P79208 17-603): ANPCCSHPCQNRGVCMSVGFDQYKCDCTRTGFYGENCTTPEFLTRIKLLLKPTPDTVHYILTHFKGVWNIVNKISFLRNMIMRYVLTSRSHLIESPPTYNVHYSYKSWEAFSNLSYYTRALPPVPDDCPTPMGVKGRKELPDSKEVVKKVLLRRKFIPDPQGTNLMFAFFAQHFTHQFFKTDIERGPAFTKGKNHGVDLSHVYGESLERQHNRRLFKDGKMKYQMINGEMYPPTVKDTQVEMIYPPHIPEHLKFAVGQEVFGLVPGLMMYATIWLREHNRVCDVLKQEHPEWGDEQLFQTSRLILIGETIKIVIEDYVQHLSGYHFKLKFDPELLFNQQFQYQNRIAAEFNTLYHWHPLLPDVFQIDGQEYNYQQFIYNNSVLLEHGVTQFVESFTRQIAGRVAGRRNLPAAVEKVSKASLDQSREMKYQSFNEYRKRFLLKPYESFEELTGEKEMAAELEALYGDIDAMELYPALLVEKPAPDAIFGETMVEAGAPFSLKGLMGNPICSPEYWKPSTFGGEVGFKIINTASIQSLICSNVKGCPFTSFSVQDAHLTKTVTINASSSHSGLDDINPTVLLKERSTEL
Protocol: This immunoassay uses an antibody to that binds all major prostaglandins to measure quantitatively the amount of PGF2α produced in the COX reaction using arachidonic acid as a substrate. The final volume of the reactions as described below is typically 1.15 ml. In brief, COX-1 or COX-2 (e.g., 20 μl of a solution of from 1 to 100 units/ml COX, where a unit is defined as the amount of enzyme that consumes one nanomole of oxygen per minute at 37° C. in 0.1 M Tris-HCl buffer, pH 8.0 containing 100 μM arachidonate, 5 mM EDTA, 2 mM phenol and 1 μM hematin) is first mixed with a buffer (e.g., 0.1 M Tris, pH 8.0, 5 mM EDTA, 2 mM phenol) and heme (e.g., 10 μl of 10 mM heme) in a microfuge tube. The heme is a cofactor for COX that provides maximal activity in the assay. […] The prostaglandin produced in the reactions is typically quantified using an enzyme immunoassay.
The enzyme immunoassay to detect prostaglandin can conveniently be performed in a 96 well plate using an antibody to detect prostaglandin. As controls, prostaglandin standards and COX 100% activity samples (no inhibitor) can be measured. […] When ready to develop the plate, the reactions are first washed and then incubated with 200 μl of Ellman's reagent for 60 minutes or so. The plate can be read at 405 to 420 nm on a plate reader. […]

[5] = tested on: PTX 10 (taxol resistant ovarian cancer cell line); assay: MTT cell viability assay, PTX 10 taxol-resistant ovarian cancer cells; assay type: cell-based; settings: protocol as Example 1
From the text: Cancer cell lines: LNCaP, DU-145, and MCF-7 cells were purchased from the American Type Culture Collection. PTX 10, a taxol-resistant ovarian cancer cell line, was obtained from the Brander Cancer Research Laboratory, New York Medical College. Cells were maintained in RPMI 1640 culture media supplemented with 10% heat-inactivated FBS, 5 millimolar glutamine, 50 units/milliliter of penicillin G, and 50 […] of streptomycin. The cells were routinely seeded at 1×10^5 cells/milliliter in T-75 flasks, allowed to attach overnight, then treated with the herbal extract. At different times, cells were harvested by trypsinization.
The assay reagents were purchased from Boehringer Mannheim (Roche Diagnosis Corp, Indianapolis, Ind.). […] The protocol for the cell viability assay was provided by the manufacturer and modified in our laboratory as described below.
After 24 hours, 20 microliter aliquots of the compounds at various concentrations were added to the attached cells. […] The plates were incubated at 37° C. in a CO2 incubator for 72 hours. At the end of day 3 (after 72 hours), the culture medium was carefully removed without disturbing the cells and replaced by 100 microliters of fresh cell medium.

[6] = tested on: LNCaP cells; assay: LNCaP cell cycle by DNA content flow cytometry; assay type: cell-based; settings: LNCaP cells exposed 24-48 hours, DAPI DNA content flow cytometry
Protocol: The cells were washed with phosphate buffered saline (PBS) and fixed in ice-cold 70% ethanol. […] ([…]. Juan, […]. Chen, F. Traganos and Z. Darzynkiewicz, “Apoptosis and Cell Cycle Effects Induced by Extracts of the Chinese Herbal Preparation of PC SPES”, International J. of Oncology (1997), 11: 437-448). The cellular DNA content was measured with an ELITE ESP flow cytometer (Coulter Inc., Fl.) using UV laser illumination. The multicycle program was used to deconvolute the DNA frequency histograms to estimate the frequency of cells in different phases of the cell cycle. […] Similar measurements were conducted for isoliquiritigenin.

[7] = tested on: DU-145 cells; assay: DU-145 cell cycle by DNA content flow cytometry; assay type: cell-based; settings: protocol of Example 3
Protocol: The cells were washed with phosphate buffered saline (PBS) and fixed in ice-cold 70% ethanol. […] ([…]. Juan, […]. Chen, F. Traganos and Z. Darzynkiewicz, “Apoptosis and Cell Cycle Effects Induced by Extracts of the Chinese Herbal Preparation of PC SPES”, International J. of Oncology (1997), 11: 437-448). The cellular DNA content was measured with an ELITE ESP flow cytometer (Coulter Inc., Fl.) using UV laser illumination. The multicycle program was used to deconvolute the DNA frequency histograms to estimate the frequency of cells in different phases of the cell cycle.

Row | SMILES | ED50 from MTT assay, MCF7 [1] | ED50 from MTT assay, LNCaP [2] | ED50 from MTT assay, DU145 [3] | IC50 [4] | ED50 PTX 10 (taxol resistant ovarian cancer cell) [5] | effect on LNCaP cell cycle phases (G1, S, G2M) [6] | effect on DU-145 cell cycle phases [7]
1 | O=C(/C=C/c1ccc(O)cc1)c1ccc(O)cc1O [Isoliquiritigenin, 2′,4,4′-trihydroxychalcone] | 3.25 µg/mL (≈ 12.7 µM) | 3.51 µg/mL (≈ 13.7 µM) | 7.60 µg/mL (≈ 29.7 µM) | 10.5 µM | 3.32 µg/mL (≈ 13 µM) | induced a G2M phase arrest | –
2 | COc1c(O)cc(O)c2c(=O)cc(-c3ccccc3)oc12 [Wogonin, 5,7-dihydroxy-8-methoxy-flavone] | – | – | – | – | – | induced a G1 phase arrest | prolonged the G2M phase
